Results from patent US20090325964A1, “Piperazine Metabotropic Glutamate Receptor 5 (MGLUR5) Negative Allosteric Modulators For Anxiety/Depression” (Wyeth, priority 2008, published 2009).

target: T1, rat mGluR5 receptor (Rattus norvegicus, UniProt P31424); assay: [3H]-MPEP displacement binding assay, HEK-293 cell membranes expressing rat mGluR5; settings: [3H]-MPEP 4 nM; Table 7A; read-out: Median Ki
T1 construct: expressed in transfected cells; host or cells: HEK-293
Procedure, shortened: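 Membranes from HEK-293 cells expressing rat mGluR5 (12-25 μg protein), incubated 60 min at room temperature with 4 nM [3H]-MPEP in 50 mM Tris pH 7.5, then filtered. Nonspecific binding defined with 10 μM MPEP.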

T1 sequence (P31424 21-1203): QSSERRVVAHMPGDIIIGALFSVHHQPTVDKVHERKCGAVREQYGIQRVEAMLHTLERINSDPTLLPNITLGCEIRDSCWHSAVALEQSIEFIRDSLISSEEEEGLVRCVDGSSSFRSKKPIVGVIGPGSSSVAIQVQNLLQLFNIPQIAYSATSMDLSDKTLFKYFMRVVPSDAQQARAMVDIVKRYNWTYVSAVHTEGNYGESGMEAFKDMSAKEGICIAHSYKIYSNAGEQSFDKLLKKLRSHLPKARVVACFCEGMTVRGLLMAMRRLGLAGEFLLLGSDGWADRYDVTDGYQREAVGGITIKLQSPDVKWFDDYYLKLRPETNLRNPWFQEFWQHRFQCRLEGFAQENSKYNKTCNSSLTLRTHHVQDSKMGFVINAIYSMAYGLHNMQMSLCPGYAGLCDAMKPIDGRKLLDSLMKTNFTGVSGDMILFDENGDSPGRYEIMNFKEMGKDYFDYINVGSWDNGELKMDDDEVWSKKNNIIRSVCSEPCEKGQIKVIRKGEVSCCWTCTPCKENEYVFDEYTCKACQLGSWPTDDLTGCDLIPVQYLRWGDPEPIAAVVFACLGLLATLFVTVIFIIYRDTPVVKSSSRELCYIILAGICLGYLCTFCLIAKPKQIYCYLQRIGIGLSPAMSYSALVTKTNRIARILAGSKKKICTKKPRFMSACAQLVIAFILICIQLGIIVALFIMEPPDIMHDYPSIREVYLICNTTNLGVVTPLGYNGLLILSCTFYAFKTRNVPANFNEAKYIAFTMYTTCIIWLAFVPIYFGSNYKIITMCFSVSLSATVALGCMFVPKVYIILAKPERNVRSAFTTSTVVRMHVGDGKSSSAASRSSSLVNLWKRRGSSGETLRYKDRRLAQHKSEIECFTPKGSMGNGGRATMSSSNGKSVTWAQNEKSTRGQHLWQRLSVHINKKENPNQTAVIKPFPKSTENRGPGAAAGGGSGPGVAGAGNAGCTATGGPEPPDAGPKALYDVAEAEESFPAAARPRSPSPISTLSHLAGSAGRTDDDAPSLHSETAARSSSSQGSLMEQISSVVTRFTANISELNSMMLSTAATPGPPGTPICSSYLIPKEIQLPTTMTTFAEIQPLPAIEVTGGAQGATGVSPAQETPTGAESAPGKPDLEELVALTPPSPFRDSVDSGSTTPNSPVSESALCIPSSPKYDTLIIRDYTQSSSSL

| Ki [nM] | SMILES |
| --- | --- |
| 827 | COc1ccc(C(=O)N2CCN(c3ccccn3)CC2)cc1/C=C/c1ccccc1 [Compound 182, 1-{4-methoxy-3-[(E)-2-phenylvinyl]benzoyl}-4-pyridin-2-ylpiperazine] |

same assay, conditions: [3H]-MPEP displacement, rat mGluR5; no Ki given; read-out: IC50 (printed in the Median Ki column instead of a Ki)

| IC50 [nM] | SMILES |
| --- | --- |
| > 10000 | COc1ccc(C(=O)N2CCN(S(=O)(=O)Cc3ccccc3)CC2)cc1C#Cc1ccccn1 [Compound 234, 1-(benzylsulfonyl)-4-[4-methoxy-3-(pyridin-2-ylethynyl)benzoyl]piperazine] |
| > 10000 | COc1ccc(C(=O)N2CCN(c3ccc(F)cc3S(C)(=O)=O)CC2)cc1C#Cc1ccccn1 [Compound 240, 1-[4-fluoro-2-(methylsulfonyl)phenyl]-4-[4-methoxy-3-(pyridin-2-ylethynyl)benzoyl]piperazine] |

same assay, conditions: [3H]-MPEP displacement, rat mGluR5; read-out: Median Ki

| SMILES | Ki [nM] |
| --- | --- |
| COc1ccc(C(=O)N2CCCN(c3ccc(C(F)(F)F)cn3)CC2)cc1C#Cc1ccccn1 [Compound 210, 1-[4-methoxy-3-(pyridin-2-ylethynyl)benzoyl]-4-[5-(trifluoromethyl)pyridin-2-yl]-1,4-diazepane] | 851 |
| COc1ccc(C(=O)N2CCCN(c3cccc(C)n3)CC2)cc1C#Cc1ccccn1 [Compound 211, 1-[4-methoxy-3-(pyridin-2-ylethynyl)benzoyl]-4-(6-methylpyridin-2-yl)-1,4-diazepane] | 619 |
| COc1ccc(C(=O)N2CCCN(c3ncc(C(F)(F)F)cc3Cl)CC2)cc1C#Cc1ccccn1 [Compound 212, 1-[3-chloro-5-(trifluoromethyl)pyridin-2-yl]-4-[4-methoxy-3-(pyridin-2-ylethynyl)benzoyl]-1,4-diazepane] | 704 |
| COc1ccc(C(=O)N2CCCN(c3ccc([N+](=O)[O-])cn3)CC2)cc1C#Cc1ccccn1 [Compound 215, 1-[4-methoxy-3-(pyridin-2-ylethynyl)benzoyl]-4-(5-nitropyridin-2-yl)-1,4-diazepane] | 2190 |
| COc1ccc(C(=O)N2CCN(c3ccc(C(F)(F)F)cc3)CC2)cc1C#Cc1ccccn1 [Compound 228, 1-[4-methoxy-3-(pyridin-2-ylethynyl)benzoyl]-4-[4-(trifluoromethyl)phenyl]piperazine] | 674 |
| COc1ccc(C(=O)N2CCN(c3ccc(S(C)(=O)=O)cc3)CC2)cc1C#Cc1ccccn1 [Compound 238, 1-[4-methoxy-3-(pyridin-2-ylethynyl)benzoyl]-4-[4-(methylsulfonyl)phenyl]piperazine] | 521 |

Results, then the compound that gave them:

| Ki [nM] | SMILES |
| --- | --- |
| 1040 | COc1ccc(C(=O)N2CCCN(c3ccc(C#N)cn3)CC2)cc1C#Cc1ccccn1 [Compound 202, 6-{4-[4-methoxy-3-(pyridin-2-ylethynyl)benzoyl]-1,4-diazepan-1-yl}nicotinonitrile] |
| 674 | COc1ccc(C(=O)N2CCCN(c3ncccc3C(F)(F)F)CC2)cc1C#Cc1ccccn1 [Compound 209, 1-[4-methoxy-3-(pyridin-2-ylethynyl)benzoyl]-4-[3-(trifluoromethyl)pyridin-2-yl]-1,4-diazepane] |
| 458 | COc1ccc(C(=O)N2CCCN(c3ncccc3C#N)CC2)cc1C#Cc1ccccn1 [Compound 214, 2-{4-[4-methoxy-3-(pyridin-2-ylethynyl)benzoyl]-1,4-diazepan-1-yl}nicotinonitrile] |
| 115 | COc1ccc(C(=O)N2CCN(S(=O)(=O)c3ccccc3)CC2)cc1C#Cc1ccccn1 [Compound 224, 1-[4-methoxy-3-(pyridin-2-ylethynyl)benzoyl]-4-(phenylsulfonyl)piperazine] |
| 734 | COc1ccc(C(=O)N2CCN(c3ccccc3OC)CC2)cc1C#Cc1ccccn1 [Compound 230, 1-(2-methoxyphenyl)-4-[4-methoxy-3-(pyridin-2-ylethynyl)benzoyl]piperazine] |
| 1410 | COc1ccc(C(=O)N2CCN(S(=O)(=O)c3ccc(Cl)c(Cl)c3)CC2)cc1C#Cc1ccccn1 [Compound 239, 1-[(3,4-dichlorophenyl)sulfonyl]-4-[4-methoxy-3-(pyridin-2-ylethynyl)benzoyl]piperazine] |

same assay, conditions: single point, @ 10 μM compound; Table 7A; read-out: PCT INHIB (%) @ 10 μM

| inhibition at 10 µM [%] | SMILES |
| --- | --- |
| 86 | COc1ccc(C(=O)N2CCN(c3ccccn3)CC2)cc1/C=C/c1ccccc1 [Compound 182, 1-{4-methoxy-3-[(E)-2-phenylvinyl]benzoyl}-4-pyridin-2-ylpiperazine] |
